US10168342B2, “Lipid probes and uses thereof” (THE SCRIPPS RESEARCH INSTITUTE, priority 2015, dated 2019)
Like-named read-outs stand apart in the source and are kept apart here.

How the values were obtained:
[1] = target: T1, AEA-DA lipid probe targets in Neuro2a cells (Mus musculus, UniProt Q9CQF9)
T1 sequence (Q9CQF9 29-505): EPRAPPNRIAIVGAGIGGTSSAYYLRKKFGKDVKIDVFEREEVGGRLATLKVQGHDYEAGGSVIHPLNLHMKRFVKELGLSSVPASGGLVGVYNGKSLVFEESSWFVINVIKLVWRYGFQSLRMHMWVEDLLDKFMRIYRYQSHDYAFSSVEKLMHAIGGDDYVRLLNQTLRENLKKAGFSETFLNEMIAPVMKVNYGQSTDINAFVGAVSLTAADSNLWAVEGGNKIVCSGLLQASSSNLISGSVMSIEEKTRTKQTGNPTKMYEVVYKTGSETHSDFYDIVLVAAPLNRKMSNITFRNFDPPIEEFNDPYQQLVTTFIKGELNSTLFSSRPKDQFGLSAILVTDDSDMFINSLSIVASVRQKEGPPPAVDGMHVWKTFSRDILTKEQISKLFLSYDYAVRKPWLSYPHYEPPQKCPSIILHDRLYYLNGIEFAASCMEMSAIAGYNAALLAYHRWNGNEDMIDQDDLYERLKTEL

[2] = target: T2, AEA-DA lipid probe targets in Neuro2a cells (Mus musculus, UniProt Q9D024)
T2 sequence (Q9D024 21-483): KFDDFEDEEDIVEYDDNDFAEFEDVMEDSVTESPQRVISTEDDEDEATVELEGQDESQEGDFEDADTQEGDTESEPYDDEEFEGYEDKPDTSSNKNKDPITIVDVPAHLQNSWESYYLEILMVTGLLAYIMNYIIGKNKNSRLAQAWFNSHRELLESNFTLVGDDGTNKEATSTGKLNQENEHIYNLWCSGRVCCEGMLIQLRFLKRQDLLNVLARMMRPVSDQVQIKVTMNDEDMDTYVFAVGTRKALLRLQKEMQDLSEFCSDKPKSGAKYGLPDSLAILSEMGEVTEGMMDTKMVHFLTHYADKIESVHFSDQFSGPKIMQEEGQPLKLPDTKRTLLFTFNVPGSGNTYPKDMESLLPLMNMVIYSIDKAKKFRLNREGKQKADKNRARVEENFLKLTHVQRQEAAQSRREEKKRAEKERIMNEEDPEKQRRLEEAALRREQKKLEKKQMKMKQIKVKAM

[3] = target: T3, AEA-DA lipid probe targets in Neuro2a cells (Mus musculus, UniProt Q8BSF4)
T3 sequence (Q8BSF4 50-406): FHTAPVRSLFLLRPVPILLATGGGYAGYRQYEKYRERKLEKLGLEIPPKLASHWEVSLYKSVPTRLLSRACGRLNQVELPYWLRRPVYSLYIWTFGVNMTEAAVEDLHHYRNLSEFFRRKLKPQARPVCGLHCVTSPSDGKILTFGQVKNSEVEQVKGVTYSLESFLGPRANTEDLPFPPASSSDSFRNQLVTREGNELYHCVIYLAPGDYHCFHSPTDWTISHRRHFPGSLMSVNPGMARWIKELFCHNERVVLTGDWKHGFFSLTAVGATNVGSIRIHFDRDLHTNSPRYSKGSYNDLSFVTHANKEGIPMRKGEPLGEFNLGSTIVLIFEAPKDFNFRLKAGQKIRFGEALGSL

[4] = target: T4, AEA-DA lipid probe targets in Neuro2a cells (Mus musculus, UniProt Q8VI75)
T4 sequence (Q8VI75 1-1082): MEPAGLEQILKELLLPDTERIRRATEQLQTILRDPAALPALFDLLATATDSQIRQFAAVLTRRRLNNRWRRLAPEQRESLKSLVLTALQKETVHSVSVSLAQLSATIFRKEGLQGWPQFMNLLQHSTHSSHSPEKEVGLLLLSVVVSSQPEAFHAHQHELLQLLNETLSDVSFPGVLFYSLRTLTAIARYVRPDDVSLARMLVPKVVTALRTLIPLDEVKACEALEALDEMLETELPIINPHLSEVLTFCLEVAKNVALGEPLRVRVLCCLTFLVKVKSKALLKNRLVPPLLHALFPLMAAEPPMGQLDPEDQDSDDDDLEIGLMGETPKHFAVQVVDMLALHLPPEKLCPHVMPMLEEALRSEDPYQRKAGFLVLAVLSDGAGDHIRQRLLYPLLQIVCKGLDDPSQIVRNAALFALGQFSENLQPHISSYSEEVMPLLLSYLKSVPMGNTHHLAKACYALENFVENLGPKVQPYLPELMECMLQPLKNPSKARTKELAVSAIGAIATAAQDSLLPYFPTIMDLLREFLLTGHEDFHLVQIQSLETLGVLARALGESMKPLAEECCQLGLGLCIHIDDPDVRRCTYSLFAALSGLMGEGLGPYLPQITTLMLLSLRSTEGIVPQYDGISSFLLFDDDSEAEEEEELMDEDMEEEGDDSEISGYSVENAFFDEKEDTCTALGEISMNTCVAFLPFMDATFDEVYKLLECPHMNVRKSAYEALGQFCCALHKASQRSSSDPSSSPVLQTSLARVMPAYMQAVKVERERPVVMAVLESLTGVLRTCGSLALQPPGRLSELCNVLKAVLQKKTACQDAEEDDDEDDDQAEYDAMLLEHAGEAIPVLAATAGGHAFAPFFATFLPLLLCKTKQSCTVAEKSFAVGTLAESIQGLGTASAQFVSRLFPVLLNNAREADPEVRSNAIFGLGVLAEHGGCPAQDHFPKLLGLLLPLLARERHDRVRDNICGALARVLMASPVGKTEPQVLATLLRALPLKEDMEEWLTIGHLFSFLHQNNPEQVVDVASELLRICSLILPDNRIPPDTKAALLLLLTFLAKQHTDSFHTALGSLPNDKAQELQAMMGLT

[5] = target: T5, AEA-DA lipid probe targets in Neuro2a cells (Mus musculus, UniProt Q9CY50)
T5 sequence (Q9CY50 22-286): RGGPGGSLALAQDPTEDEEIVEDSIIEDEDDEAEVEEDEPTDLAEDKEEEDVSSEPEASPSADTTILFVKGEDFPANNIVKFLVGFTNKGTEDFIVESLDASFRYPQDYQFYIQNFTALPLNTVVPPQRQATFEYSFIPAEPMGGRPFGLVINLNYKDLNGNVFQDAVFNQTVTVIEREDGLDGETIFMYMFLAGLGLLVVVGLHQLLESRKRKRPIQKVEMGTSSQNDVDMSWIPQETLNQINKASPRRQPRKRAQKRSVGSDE

| SMILES | SILAC ratio, Pcyox1 ([1]; competitor 25 μM) | SILAC ratio, Ccdc47 ([2]; competitor 25 μM) | SILAC ratio Ipo4 ([4]; competitor 25 μM) | SILAC ratio, Ssr1 ([5]; competitor 25 μM) | SILAC ratio, Pisd ([3]; competitor 25 μM) | further results |
| --- | --- | --- | --- | --- | --- | --- |
| CCCCC/C=C\C/C=C\C/C=C\C/C=C\CCCC(=O)NCCO [AEA, anandamide, reference compound] | – | – | – | – | – | SILAC ratio, Pcyox1 ([1]; competitor 200 μM): 1.7; SILAC ratio, Ccdc47 ([2]; competitor 200 μM): 1.7; SILAC ratio, Pisd ([3]; competitor 200 μM): 1.8; SILAC ratio Ipo4 ([4]; competitor 200 μM): 1.5; SILAC ratio, Ssr1 ([5]; competitor 200 μM): 1.9 |
| O=C(/C=C/c1cccnc1)NCCCCC1CCN(C(=O)c2ccccc2)CC1 [FK-866, reference compound] | 1.2 | 1.3 | 1.3 | 1.3 | – | – |
| CN1CCN(C(=O)c2c(-c3ccccc3)c3cc([N+](=O)[O-])ccc3n2C)CC1 [KML110, (1-Methyl-5-nitro-3-phenyl-1H-indol-2-yl)(4-methylpiperazin-1-yl)methanone] | 1.5 | 1.7 | 1.4 | 1.7 | 1.4 | – |
| CN1CCN(C(=O)c2[nH]c3ccc([N+](=O)[O-])cc3c2-c2ccccc2)CC1 [MJN228, (4-Methylpiperazin-1-yl)(5-nitro-3-phenyl-1H-indol-2-yl)methanone] | 1.4 | 1.8 | 1.3 | 1.7 | 1.4 | SILAC ratio, Pcyox1 ([1]; competitor 10 μM): 1.2; SILAC ratio, Pcyox1 ([1]; competitor 50 μM): 1.6; SILAC ratio, Pcyox1 ([1]; competitor 100 μM): 2.2; SILAC ratio, Ccdc47 ([2]; competitor 10 μM): 1.4; SILAC ratio, Ccdc47 ([2]; competitor 50 μM): 1.9; SILAC ratio, Ccdc47 ([2]; competitor 100 μM): 3.1; SILAC ratio Ipo4 ([4]; competitor 10 μM): 1.0; SILAC ratio Ipo4 ([4]; competitor 50 μM): 1.0; SILAC ratio Ipo4 ([4]; competitor 100 μM): 1.6; SILAC ratio, Ssr1 ([5]; competitor 10 μM): 1.3; SILAC ratio, Ssr1 ([5]; competitor 50 μM): 1.8; SILAC ratio, Ssr1 ([5]; competitor 100 μM): 3.0 |
| C=CCN(C)CCCCCCOc1ccc(C(=O)c2ccc(Br)cc2)c(F)c1 [Ro 48-8071, reference compound] | 1.8 | 1.4 | 1.0 | 1.3 | 1.3 | – |
